Experimental data: US8252781B2, “1,2-diazetidin-3-one derivatives and drugs containing same” (Kowa Company, Ltd., priority 2008, dated 2012)
Like-named read-outs stand apart in the source and are kept apart here.

Key:
human 11β-HSD1 = target: T1, human 11β-HSD1 (Homo sapiens, UniProt P28845); assay: Enzyme inhibitory activity, human 11β-HSD1 (lysate of stably expressing HEK293 cells, cortisol by competitive ELISA); type: biochemical; conditions: human 11β-HSD1, cell lysate, 37° C. for 1 hour, read-out: h HSD1 in vitro assay (IC50 uM)
T1 construct: The obtained PCR products of about 0.9 kbp, 1.2 kbp, and 0.9 kbp were subcloned into an expression vector pcDNA3.1+/Zeo; expressed in transfected cells
T1 sequence (P28845 whole entry): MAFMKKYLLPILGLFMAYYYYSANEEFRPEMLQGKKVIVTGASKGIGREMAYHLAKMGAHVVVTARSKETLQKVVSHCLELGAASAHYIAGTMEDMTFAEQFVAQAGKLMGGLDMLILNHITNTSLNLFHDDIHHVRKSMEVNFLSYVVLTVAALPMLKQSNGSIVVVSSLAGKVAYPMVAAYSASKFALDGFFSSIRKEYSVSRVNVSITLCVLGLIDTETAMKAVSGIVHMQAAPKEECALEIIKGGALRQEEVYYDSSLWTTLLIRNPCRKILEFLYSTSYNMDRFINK
Procedure: (§1) 1. Human 11β-HSD1-, Human 11β-HSD2- and Mouse 11β-HSD1-Gene Clonings and Establishment of Stably Expressing Cells
(§2) Human 11β-HSD1-, human 11β-HSD2-, and mouse 11β-HSD1-gene clonings were conducted using as a template a reverse transcription product of human-liver RNA, human-kidney RNA (CELL APPLICATIONS), and mouse-kidney RNA respectively, by means of PCR cloning with reference to nucleotide sequences of Genbank Accession Nos. NM_005525, NM_000196, and NM_008288. The obtained PCR products of about 0.9 kbp, 1.2 kbp, and 0.9 kbp were subcloned into an expression vector pcDNA3.1+/Zeo (Invitrogen).
(§3) Human 11β-HSD1- and human 11β-HSD2-expressing vectors were transfected into human kidney-derived cell line, HEK293 cells, using a transfection reagent, jet PEI (Funakoshi). Mouse 11β-HSD1 was transfected to Chinese hamster ovary-derived cell line, CHO-K1 cells. Selection was conducted with 200-400 μg/mL of zeocine (Invitrogen) to provide stably expressing-cell clones. The stably expressing cells were suspended in buffer solution A (20 mmol/L Tris-HCl, pH 7.4, 250 mmol/L sucrose, 1 mmol/L EGTA, 1 mmol/L EDTA, 1 mmol/L MgCl2), sonicated, and then stored at −80° C.
(§4) 2. Assay of Enzyme Inhibitory Activity
(§5) An enzymatic reaction was conducted using a polystyrene 96-well plate. Each well was added with 1 μL of a test agent dissolved in DMSO and then diluted (0.003 to 3 mmol/L), and further added with 10 μL of cell lysate diluted to a concentration of 0.1 mg/mL to 0.4 mg/mL. Next, 90 μL of buffer solution A containing substrate (100 nmol/L cortisone or cortisol) and coenzyme (400 μmol/L NADPH or NAD+) was added and the mixture was incubated at 37° C. for 1 hour. The enzymatic reaction was stopped by treating at 95° C. for 3 minutes. Cortisol that was present in the reaction solution was determined by a competitive ELISA shown below.
(§6) Anti-rabbit IgG antibody (Chemi-con) diluted to 2 μg/mL with carbonate buffer solution (pH 9.6) was added in 100 μL each to a 96-well immuno plate (Nunc) and immobilized by an incubation at 4° C. overnight. 50 μL of enzymatic reaction solution was put onto the plates, and further, anti-cortisol antibody (Cosmo Bio) and HRP-labeled cortisol (Cosmo Bio), diluted with buffer solution B (25 mmol/L Tris-HCl pH 7.4, 137 mmol/L NaCl, 2.68 mmol/L KCl), were added in 50 μL respectively and incubated at 4° C. overnight. After washed three times with buffer solution B containing 0.05% Tween 20, the plates were allowed to develop color by adding 100 μL of color reagent, TMB (Moss). The color reaction was stopped by 25 μL of 1 mol/L sulfuric acid and the absorbance was determined at 450 nm with a microplate reader (Molecular Device, VersaMax).
(§7) The values of human 11β-HSD1, human 11β-HSD2, and mouse 11β-HSD1 activities were subtracted from 100, and the resultant values were regarded as the respective 11β-HSD inhibition rates of example compounds. […] The comparison of human 11β-HSD1 and human 11β-HSD2 inhibiting activities is shown in Table 1, and the comparison of human 11β-HSD1 and mouse 11β-HSD1 inhibiting activities is shown in Table 2.

mouse 11β-HSD1 = target: T2, mouse 11β-HSD1 (Mus musculus, UniProt P50172); assay: Enzyme inhibitory activity, mouse 11β-HSD1 (lysate of stably expressing CHO-K1 cells, cortisol by competitive ELISA); type: biochemical; conditions: Table 2; mouse 11β-HSD1, cell lysate, 37° C. for 1 hour; read-out: m HSD1 in vitro assay (IC50 uM)
T2 construct: The obtained PCR products of about 0.9 kbp, 1.2 kbp, and 0.9 kbp were subcloned into an expression vector pcDNA3.1+/Zeo; expressed in transfected cells
T2 sequence (P50172 whole entry): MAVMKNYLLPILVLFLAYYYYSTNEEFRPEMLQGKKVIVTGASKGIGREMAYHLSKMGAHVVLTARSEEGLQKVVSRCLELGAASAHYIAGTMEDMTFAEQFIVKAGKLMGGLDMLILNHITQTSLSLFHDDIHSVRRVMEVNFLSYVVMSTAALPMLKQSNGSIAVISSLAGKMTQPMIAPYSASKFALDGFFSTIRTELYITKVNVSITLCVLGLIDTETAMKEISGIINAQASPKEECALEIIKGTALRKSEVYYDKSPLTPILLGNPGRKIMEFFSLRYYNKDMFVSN
Procedure: as §1, §2, §3, §4, §5, §6, §7

| SMILES | IC50 (human 11β-HSD1; Table 1) | IC50 (mouse 11β-HSD1) | IC50 (human 11β-HSD1; Table 2) |
| --- | --- | --- | --- |
| CC1(C)C(=O)N(C2CC3CCC2C3)N1c1cccc2ccccc12 (centres unmarked) [Example 225, 2-(bicyclo[2.2.1]heptan-2-yl)-4,4-dimethyl-1-(naphthalen-1-yl)-1,2-diazetidin-3-one] | 0.036 µM | 0.012 µM |  |
| CC1(C)C(=O)N([C@H]2C3CC4CC2C[C@](O)(C4)C3)N1Cc1ccccc1C(F)(F)F [Example 66, trans-2-(5-hydroxyadamantan-2-yl)-4,4-dimethyl-1-[2-(trifluoromethyl)benzyl]-1,2-diazetidin-3-one] | 0.09 µM | 0.57 µM |  |
| CC1(C)C(=O)N(C2C3CC4CC(C3)CC2C4)N1C(=O)c1ccc2c(c1)OCO2 (centres unmarked) [Example 135, 1-(1,3-benzodioxol-5-ylcarbonyl)-4,4-dimethyl-2-(adamantan-2-yl)-1,2-diazetidin-3-one] |  | 0.11 µM | 0.76 µM |
| Cc1ccc(F)cc1C(=O)N1N(C2C3CC4CC(C3)CC2C4)C(=O)C1(C)C (centres unmarked) [Example 125, 1-[(5-fluoro-2-methylphenyl)carbonyl]-4,4-dimethyl-2-(adamantan-2-yl)-1,2-diazetidin-3-one] | 0.47 µM | 0.42 µM |  |
| CC1(C)C(=O)N(C2CCCCCC2)N1Cc1ccc(F)cc1Cl [Example 86, 1-(2-chloro-4-fluorobenzyl)-2-cycloheptyl-4,4-dimethyl-1,2-diazetidin-3-one] |  | 0.49 µM | 0.14 µM |
| CC1(C)C(=O)N([C@H]2C3CC4CC2C[C@](O)(C4)C3)N1c1ccccc1O [Example 233, trans-1-(2-hydroxyphenyl)-2-(5-hydroxyadamantan-2-yl)-4,4-dimethyl-1,2-diazetidin-3-one] |  | 0.27 µM | 0.18 µM |
| CC1(C)C(=O)N(C2C3CC4CC(C3)CC2C4)N1C(=O)c1cc(Cl)cc(Cl)c1 (centres unmarked) [Example 117, 1-[(3,5-dichlorophenyl)carbonyl]-4,4-dimethyl-2-(adamantan-2-yl)-1,2-diazetidin-3-one] |  | 0.39 µM | 0.98 µM |
| CC1(C)C(=O)N(C2C3CC4CC(C3)CC2C4)N1Cc1ccc(F)cc1Cl (centres unmarked) [Example 45, 1-(2-chloro-4-fluorobenzyl)-4,4-dimethyl-2-(adamantan-2-yl)-1,2-diazetidin-3-one] |  | 0.14 µM | 0.079 µM |
| CC1(C)C(=O)N(C2C3CC4CC(C3)CC2C4)N1Cc1cccc([N+](=O)[O-])c1 (centres unmarked) [Example 29, 4,4-dimethyl-1-(3-nitrobenzyl)-2-(adamantan-2-yl)-1,2-diazetidin-3-one] |  | 0.37 µM | 0.6 µM |
| CC1(C)C(=O)N(C2C3CC4CC(C3)CC2C4)N1c1ccc(N)cc1 (centres unmarked) [Example 183, 1-(4-aminophenyl)-4,4-dimethyl-2-(adamantan-2-yl)-1,2-diazetidin-3-one] |  | 0.76 µM | 0.057 µM |
| CC1(C)C(=O)N(C2C3CC4CC(C3)CC2C4)N1Cc1cccc(Cl)c1F (centres unmarked) [Example 59, 1-(3-chloro-2-fluorobenzyl)-4,4-dimethyl-2-(adamantan-2-yl)-1,2-diazetidin-3-one] |  | 0.064 µM | 0.25 µM |
| CC1(C)C(=O)N(C2CCCCCCC2)N1C(=O)c1ccccc1N [Example 153, 1-[(2-aminophenyl)carbonyl]-2-cyclooctyl-4,4-dimethyl-1,2-diazetidin-3-one] | 0.14 µM | 0.032 µM |  |
| CC1(C)C(=O)N(C2C3CC4CC(C3)CC2C4)N1Cc1ccc(F)c(F)c1 (centres unmarked) [Example 16, 1-(3,4-difluorobenzyl)-4,4-dimethyl-2-(adamantan-2-yl)-1,2-diazetidin-3-one] |  | 0.1 µM | 0.8 µM |
| CC1(C)C(=O)N(C2C3CC4CC(C3)CC2C4)N1Cc1cccc2ccccc12 (centres unmarked) [Example 63, 4,4-dimethyl-1-(naphthalen-1-ylmethyl)-2-(adamantan-2-yl)-1,2-diazetidin-3-one] |  | 0.41 µM | 0.015 µM |
| CC1(C)C(=O)N(C2C3CC4CC(C3)CC2C4)N1Cc1cccc(F)c1 (centres unmarked) [Example 22, 1-(3-fluorobenzyl)-4,4-dimethyl-2-(adamantan-2-yl)-1,2-diazetidin-3-one] |  | 0.079 µM | 0.64 µM |
| CC1(C)C(=O)N(C2CC3CCC2C3)N1Cc1cc(Cl)ccc1Cl (centres unmarked) [Example 80, 2-(bicyclo[2.2.1]heptan-2-yl)-1-(2,5-dichlorobenzyl)-4,4-dimethyl-1,2-diazetidin-3-one] |  | 0.39 µM | 0.13 µM |
| CC1(C)C(=O)N([C@H]2C3CC4CC2C[C@](O)(C4)C3)N1c1ccc(F)c2ccccc12 [Example 238, trans-1-(4-fluoronaphthalen-1-yl)-2-(5-hydroxyadamantan-2-yl)-4,4-dimethyl-1,2-diazetidin-3-one] | 0.02 µM | 0.38 µM |  |
| CC1(C)C(=O)N(C2C3CC4CC(C3)CC2C4)N1c1csc2ccccc12 (centres unmarked) [Example 210, 1-(1-benzothiophen-3-yl)-4,4-dimethyl-2-(adamantan-2-yl)-1,2-diazetidin-3-one] |  | 0.16 µM | 0.44 µM |
| Cc1ccccc1CN1N(C2C3CC4CC(C3)CC2C4)C(=O)C1(C)C (centres unmarked) [Example 30, 4,4-dimethyl-1-(2-methylbenzyl)-2-(adamantan-2-yl)-1,2-diazetidin-3-one] |  | 0.1 µM | 0.047 µM |
| CC1(C)C(=O)N(C2C3CC4CC(C3)CC2C4)N1Cc1ccc(C(F)(F)F)cc1 (centres unmarked) [Example 36, 4,4-dimethyl-2-(adamantan-2-yl)-1-[4-(trifluoromethyl)benzyl]-1,2-diazetidin-3-one] |  | 0.21 µM | 0.69 µM |
| CC1(C)C(=O)N([C@H]2C3CC4CC2C[C@](C(N)=O)(C4)C3)N1c1cccc(Cl)c1Cl [Example 277, trans-4-[2-(2,3-dichlorophenyl)-3,3-dimethyl-4-oxo-1,2-diazetidin-1-yl]adamantane-1-carboxamide] | 0.007 µM | 0.4 µM |  |
| CC1(C)C(=O)N(C2CCCCCCC2)N1Cc1ccccc1Cl [Example 73, 1-(2-chlorobenzyl)-2-cyclooctyl-4,4-dimethyl-1,2-diazetidin-3-one] |  | 0.11 µM | 0.021 µM |
| Cc1cccc(N2N(C3C4CC5CC(C4)CC3C5)C(=O)C2(C)C)c1C (centres unmarked) [Example 207, 1-(2,3-dimethylphenyl)-4,4-dimethyl-2-(adamantan-2-yl)-1,2-diazetidin-3-one] |  | 0.054 µM | 0.61 µM |
| CC1(C)C(=O)N([C@H]2C3CC4CC2C[C@@](O)(C4)C3)N1c1ccc(F)c2ccccc12 [Example 249, cis-1-(4-fluoronaphthalen-1-yl)-2-(5-hydroxyadamantan-2-yl)-4,4-dimethyl-1,2-diazetidin-3-one] | 0.013 µM | 0.78 µM |  |
| Cc1ccc(CN2N(C3C4CC5CC(C4)CC3C5)C(=O)C2(C)C)c(C)c1 (centres unmarked) [Example 55, 1-(2,4-dimethylbenzyl)-4,4-dimethyl-2-(adamantan-2-yl)-1,2-diazetidin-3-one] |  | 0.069 µM | 0.067 µM |
| CC1(C)C(=O)N([C@H]2C3CC4CC2C[C@](Cl)(C4)C3)N1c1cccc2ccccc12 [Example 254, trans-2-(5-chloroadamantan-2-yl)-4,4-dimethyl-1-(naphthalen-1-yl)-1,2-diazetidin-3-one] | 0.012 µM | 0.075 µM |  |
| CC1(C)C(=O)N(C2C3CC4CC(C3)CC2C4)N1Cc1ccc(Cl)cc1 (centres unmarked) [Example 13, 1-(4-chlorobenzyl)-4,4-dimethyl-2-(adamantan-2-yl)-1,2-diazetidin-3-one] |  | 0.025 µM | 0.058 µM |
| CC1(C)C(=O)N(C2C3CC4CC(C3)CC2C4)N1C(=O)c1cccc(Br)c1 (centres unmarked) [Example 113, 1-[(3-bromophenyl)carbonyl]-4,4-dimethyl-2-(adamantan-2-yl)-1,2-diazetidin-3-one] |  | 0.12 µM | 0.42 µM |
